Values of other authors, collected in PMC3762478 (Bioorganic & medicinal chemistry letters, 2013).
pKi: −log10 of the molar value. Where two headings read alike, the source gives them in different places.

Tests used:
[1] = tested on: −1 receptor (sigma-1); conditions: guinea-pig brain membranes
[2] = tested on: −1 receptor (sigma-1); conditions: rat brain homogenates

Structure (SMILES) | selectivity over −2 receptor [1] | pKi ([1]; read-out: Ki for −1 receptor) | selectivity over −2 receptor [2] | pKi ([2]; read-out: Ki for −1 receptor)
CCCc1ccc2c(c1)sc(=O)n2CCN1CCCCCC1 [Compound 1] | over 1000 fold | 9.25 |  | 
O=c1sc2cc(CCCF)ccc2n1CCN1CCCCCC1 [Compound 2] |  |  | > 100,000 fold | 11.60
